Bounds are passed on as bounds.

The values below come from PMC11585928, “Screening the Global Health Priority Box against Plasmodium berghei liver stage parasites using an inexpensive luciferase detection protocol” (Malaria Journal, 2024).

In series [1] the test system is P. berghei liver stage schizonts. Description: microbe, parasite or virus in culture. The class given is cell-based. Conditions: Plasmodium berghei, HepG2, 44 h, read-out: High Content Imaging (pEC50 ± SD) (converted). The protocol: (§1) HepG2 seeding (1.75 × 10^4 cells/well), salivary gland dissection, sporozoite quantification, and sporozoite dilution were performed as described above. To test the titration of sporozoite in dose–response format with MMV390048, 20 µL of a 25 sporozoite/μL solution in HepG2 media was added to columns 1–8 of 384-well plates (inoculum of 500 sporozoites/well), 20 μL of 50 sporozoites/μL was added into columns 9–16 (inoculum of 1000 sporozoites/well), and 20 μL of 100 sporozoites/μL was added into columns 17–24 (inoculum of 2000 sporozoites/well). To test legacy anti-malarials, two independent experiments were performed for each endpoint (FLAR or HCI), each with an independent production run of P. berghei sporozoites. […] Infected plates were spun for 5 min at 200 RCF and kept for 3 h at 37 °C and 5% CO2 prior to compound treatment.
(§2) Compound treatment was performed as previously described. Dose–response source plates containing 5 μL of 1000 × test compounds in a serial dilution in DMSO were prepared in low volume 384-well plates using a Biomek 4000 (Beckman Coulter). Assay plates were treated by transferring 40 nL from screening or dose–response source plates using a pin tool (V&P Scientific) affixed to a Biomek NXp, resulting in a final test concentration of 1 × in media.
After 44 h, dose–response plates designated for the FLAR endpoint underwent the freeze/thaw lysis method before detection with 1 × FLAR completed with 1 × D-luciferin and ATP endpoint described above. Plates designated for the HCI endpoint were fixed with 4% paraformaldehyde (Thermo Scientific, cat 043368.9 M) in PBS for 20 min. Following fixation, the plate was washed twice by adding and then dumping 20 µL of PBS/well. Plates were then stained with 50 ng/mL of mouse anti-Plasmodium glyceraldehyde 3-phosphate dehydrogenase (GAPDH) (European Malaria Reagent Repository, cat 13.3) diluted in a 0.3% Triton X and 1% BSA permeabilization and blocking stain buffer overnight at 4 °C. Following three washes with PBS, plates were stained with 2 µg/mL of goat anti-mouse AlexaFluor 488 (Invitrogen, cat A11001) diluted in stain buffer and again incubated overnight at 4 °C. Following three washes with PBS, plates were counterstained with 10 µg/mL Hoechst 33342 (Invitrogen, cat H21492) for 30 min before two washes. Plates were imaged on an ImageXpress Micro Confocal high content system (Molecular Devices). Raw values (either parasite growth area for HCI or Relative Light Units (RLU) for FLAR) were normalized to the positive (MMV390048) or negative (DMSO) controls using the equation: %Inhibition=100×RawData-AverageNegativeControl/AveragePositiveControl-AverageNegativeControl and curve fitting was performed with CDD Vault using the Levenberg–Marquardt algorithm. Potency data from all plates were collected, visualized, and analysed using GraphPad Prism (Version 10.0.3). Potency values for legacy anti-malarials obtained from our FLAR endpoint were compared to those previously reported from a 1536-well plate format using a Bright-Glo™ luciferase detection protocol.

Series [2] deals with luciferase-expressing P. berghei liver stage schizonts. Description: P. berghei liver stage dose-response assay in HepG2, FLAR luciferase endpoint (legacy anti-malarials). As to conditions: Plasmodium berghei, HepG2, 44 h, read-out: FLAR (pEC50 ± SD) (converted). The class given is cell-based. The protocol:
All stock reagents were stored at 4 °C, except D-luciferin, ATP, and DTT which were aliquoted and stored at − 20 °C. Tricine, MgSO4, and MgCO3 stocks were all adjusted to have a pH of 7.8.
as §1, with “To” for “HepG2 seeding (1.75 × 10^4 cells/well), salivary gland dissection, sporozoite quantification, and sporozoite dilution were performed as described above. To”
as §2
After 44 h, dose–response plates designated for the FLAR endpoint underwent the freeze/thaw lysis method before detection with 1 × FLAR completed with 1 × D-luciferin and ATP endpoint described above. […] Following fixation, the plate was washed twice by adding and then dumping 20 µL of PBS/well. […] Plates were imaged on an ImageXpress Micro Confocal high content system (Molecular Devices). Raw values (either parasite growth area for HCI or Relative Light Units (RLU) for FLAR) were normalized to the positive (MMV390048) or negative (DMSO) controls using the equation: %Inhibition=100×RawData-AverageNegativeControl/AveragePositiveControl-AverageNegativeControl and curve fitting was performed with CDD Vault using the Levenberg–Marquardt algorithm. Potency data from all plates were collected, visualized, and analysed using GraphPad Prism (Version 10.0.3). Potency values for legacy anti-malarials obtained from our FLAR endpoint were compared to those previously reported from a 1536-well plate format using a Bright-Glo™ luciferase detection protocol.

The subject of the next series is HepG2 cells. Description: HepG2 cytotoxicity assay in galactose media, 72 h, hepatic nuclei count by HCI. The class given is cell-based, Homo sapiens. The protocol:
To assess the general cytotoxicity of GHPB compounds, HepG2 cells were cultured in media containing galactose instead of glucose to avoid false negatives due to the Crabtree effect. Following propagation of HepG2 in T-75 flasks with glucose-containing media as above, media was aspirated, the cell monolayer was washed with PBS, and then cells were trypsinized as above. Released cells were then resuspended in media containing glucose-free DMEM (Gibco, cat 11,966–025) supplemented with 10% FBS (Corning, cat 35–016-CV), 10 mM galactose (Sigma, cat G5388), 1 mM sodium pyruvate (Corning, cat 25–000-CI), 1 × penicillin–streptomycin-neomycin mix (Gibco, cat 15,640–055), and 2 mM L-glutamine (Gibco, cat 25,030–081). The cell density was calculated using trypan blue exclusion on a haemocytometer, diluted to 50 cells/µL, and 40 µL of cells were seeded into collagen-coated 384-well plates (Greiner Bio-One, cat 781,956) using a Biomek NXp (Beckman Coulter), resulting in 2 × 10^3 cells/well. The day after seeding, plates were treated with a pin tool as above and cultured for 72 h. Plates were then fixed with 4% paraformaldehyde, stained with 10 µg/mL Hoechst 33,342, and imaged on an ImageXpress Micro Confocal. Hepatic nuclei were quantified using MetaXpress (Molecular Devices) image analysis software. Both P. berghei liver schizont and HepG2 cytotoxicity data were loaded into CDD Vault for normalization and hit selection as described above. A total of 35 compounds were identified for resupply of fresh powder for confirmation in dose–response assays. […] Powders were diluted to 50 mM in DMSO and plated in 1000 × source plates as described above. […] Separately, two independent runs of the HepG2 cultured in galactose, assayed as described above, were used to assess the cytotoxicity potency and selectivity indices for these compounds. […] Receiver-operator characteristic (ROC) curves were generated using Graphpad Prism and area under the curve (AUC) was calculated using the Wilson/Brown method for both P. berghei liver schizont activity and HepG2 cytotoxicity.

As to `CCc1nc(N)nc(N)c1-c1ccc(Cl)cc1` [Pyrimethamine], the EC50 in series [1] is 19.5 nM; in series [2], 33.9 nM. As for `COc1ncnc(NS(=O)(=O)c2ccc(N)cc2)c1OC` [Sulfadoxine], the EC50 in series [1] and in series [2] was over 10000 nM throughout. Take `COc1cc(NC(C)CCCN)c2ncccc2c1` (centres unmarked) [Primaquine]: the EC50 in series [1] was over 10000 nM; in series [2], over 5370 nM. For `CC(C)(N)CNC(=O)C[C@H]1CC[C@]2(CC1)OO[C@]1(O2)C2CC3CC(C2)CC1C3` [Arterolane (OZ277), Arterolane], in that order: over 3020 nM and over 10000 nM. Turning to `CCOc1ccccc1NC(=O)Cn1c(=O)n(Cc2ccccc2)c(=O)c2c(C)c(C(=O)N(C)C)sc21` [MMV006430], the “HepG2 Cytotoxicity (pEC50 ± SD)” value with HepG2 cells is reported as 4.94 ± 0.06. As to `c1cc([C@H]2CC[C@]3(CC2)OO[C@]2(O3)C3CC4CC(C3)CC2C4)ccc1OCCN1CCOCC1` [Artefenomel (OZ439), Artefenomel], the values for the EC50 in series [1] and in series [2] were over 1230 nM and over 28800 nM, respectively. For `COc1cc(Cc2cnc(N)nc2N)cc(OC)c1OC` [Trimethoprim], in that order: 1740 nM and 1290 nM. For `C[C@H]1[C@@H](O)O[C@@H]2O[C@@]3(C)CC[C@H]4[C@H](C)CC[C@@H]1[C@@]24OO3` [Artenimol (DHA), dihydroartemisinin], in that order: over 10000 nM and over 10000 nM. In the case of `CN(C)c1ccc2nc3ccc(=[N+](C)C)cc-3sc2c1` [Methylene Blue], the EC50 in series [1] is 295 nM; in series [2], 219 nM.

Take `CO[C@H]1O[C@@H]2O[C@@]3(C)CC[C@H]4[C@H](C)CC[C@@H]([C@H]1C)[C@@]24OO3` [Artemether]: the EC50 was over 37200 nM in series [1] and over 1070 nM in series [2].

`Clc1ccc2c(N3CCN(CCCN4CCN(c5ccnc6cc(Cl)ccc56)CC4)CC3)ccnc2c1` [Piperaquine]: the results for the EC50 in series [1] and in series [2] were over 5750 nM and over 5250 nM, respectively.

`COc1cc(C)c2c(Oc3cccc(C(F)(F)F)c3)c(OC)cc(NC(C)CCCN)c2n1` (centres unmarked) [Tafenoquine]: the EC50 in series [1] is over 3390 nM; in series [2] it was over 1580 nM.

Regarding `C[C@H]1Cc2c([nH]c3cc(Cl)c(F)cc23)[C@@]2(N1)C(=O)Nc1ccc(Cl)cc12` [Cipargamin], the EC50 in series [1] is 9.55 nM; in series [2], 10.2 nM. The matching figures for `CCCCN(CCCC)CC(O)c1cc(Cl)cc2c1-c1ccc(Cl)cc1/C2=C/c1ccc(Cl)cc1` (centres unmarked) [Lumefantrine]: over 5750 nM and over 5750 nM. For `CCN(CC)CCCC(C)Nc1ccnc2cc(Cl)ccc12` (centres unmarked) [Chloroquine], in that order: over 10000 nM and over 10000 nM.

Turning to `CC[C@H]1OC(=O)[C@H](C)[C@@H](O[C@H]2C[C@@](C)(OC)[C@@H](O)[C@H](C)O2)[C@H](C)[C@@H](O[C@@H]2O[C@H](C)C[C@H](N(C)C)[C@H]2O)[C@](C)(O)C[C@@H](C)CN(C)[C@H](C)[C@@H](O)[C@]1(C)O` [Azithromycin], the EC50 in series [1] and in series [2] was over 10000 nM each time. With `O=C1C(O)=C([C@H]2CC[C@H](c3ccc(Cl)cc3)CC2)C(=O)c2ccccc21` [Atovaquone], the EC50 is 17 nM in series [1] and 21.4 nM in series [2]. For `C[C@H]1[C@H](OC(=O)CCC(=O)O)O[C@@H]2O[C@@]3(C)CC[C@H]4[C@H](C)CC[C@@H]1[C@@]24OO3` [Artesunate], in that order: over 16600 nM and over 16600 nM. For `CS(=O)(=O)c1ccc(-c2cnc(N)c(-c3ccc(C(F)(F)F)nc3)c2)cc1` [MMV390048], in that order: 63.1 nM and 64.6 nM. For `C[C@@H]1CC[C@H]2[C@@H](C)C(=O)O[C@@H]3O[C@@]4(C)CC[C@@H]1[C@]32OO4` [Artemisinin], the EC50 in series [1] and in series [2] was over 50100 nM each time. As for `Cc1cc(Nc2ccc(S(F)(F)(F)(F)F)cc2)n2nc(C(C)(F)F)nc2n1` [DSM265], the EC50 is 11.2 nM in series [1] and 16.6 nM in series [2].
